Laboratory results from patent US8809328B2, “Imidazole derivative” (National University Corporation Shizuoka University, priority 2011, dated 2014).

Columns and labels:
[1] = system: rice (Nipponbare) (Oryza sativa L. cv. Nipponbare); assay: Influence of AOH on soil cultivation of rice (field cultivation); type: in vivo
Procedure: Rice (Nipponbare) (Oryza sativa L. cv. Nipponbare) was used and cultivated in a field as follows. As cultivation conditions, five sections of (1) to (5) were set.
Rice (Nipponbare) (Oryza sativa L. cv. Nipponbare) was sown in a nursery box on Apr. 29, 2011, and provided with a total of 15 liters of tap water or tap water to which AOH was added for two weeks from May 24th while raising seedling in the nursery box. On June 7th, each of grown seedlings was transplanted to the field. The planting density was set to the interrow space of 30 cm and the planting distance of 15 cm (three reproductions of 3×3.3 m per one section). As basal fertilizer, 50 L of tap water or tap water to which AOH was added per section was supplied on June 7th. The cultivation was continued, and as topdressing for panicle formation, 50 L of tap water or tap water to which AOH was added per section was supplied on July 25th. Plant bodies were harvested on October 12th.
(1) Tap water was used as the culture fluid during seedling raising, the basal fertilizer, and the topdressing for panicle formation.
(2) Tap water to which AOH was added such that the final concentration became 0.5 mM was provided as the culture fluid during seedling raising. Tap water was used as the basal fertilizer, and the topdressing for panicle formation.
(3) Tap water to which AOH was added such that the final concentration became 1.0 mM was provided as the culture fluid during seedling raising. Tap water was used as the basal fertilizer and the topdressing for panicle formation.
(4) Tap water to which AOH was added such that the final concentration became 0.5 mM was provided as the basal fertilizer. Tap water was used as the culture fluid during seedling raising and the topdressing for panicle formation.
(5) Tap water to which AOH was added such that the final concentration became 0.5 mM was provided as the topdressing for panicle formation. Tap water was used as the culture fluid during seedling raising and the basal fertilizer.
Brown rice was dried, and total brown rice weight, hull weight, non-sieved brown rice weight and sieved brown rice, per 10 plant bodies, and thousand kernel weight were measured.

[2] = system: rice (Nipponbare) (Oryza sativa L. cv. Nipponbare); assay: Influence of AOH on soil cultivation of rice (pot cultivation); type: in vivo
Procedure: Rice (Nipponbare) (Oryza sativa L. cv. Nipponbare) was sown on Apr. 29, 2011, and each of grown seedlings was transplanted to a pot (1/5000a pot) filled with soil which contains a fertilizer comprising N (1440 mg), P2O5 (12 mg), K2O (760 mg) and CaO (806 mg) on June 7th, and was soil-cultivated in a greenhouse (28° C.) under any one of seven types of cultivation conditions of the following (1) to (7) until September 24th. Supply of water was performed by providing two liter of tap water or tap water to which AOH was added every week (see below).
(1) Tap water was provided during pot cultivation.
(2) Tap water to which AOH was added such that the final concentration became 50 μM was provided for two weeks (from June 7th to June 20th) in the planting stage. Tap water was provided in the other period.
(3) Tap water to which AOH was added such that the final concentration became 50 μM was provided for two weeks (from July 4th to July 17th) in the tillering stage. Tap water was provided in the other period.
(4) Tap water added to which AOH was added such that the final concentration became 50 μM was provided for two weeks (from July 25th to August 7th) in the topdressing stage for panicle formation. Tap water was provided in the other period.
(5) Tap water added to which AOH was added such that the final concentration became 50 μM was provided for two weeks (from August 15th to August 28th) in the topdressing stage for ripening. Tap water was provided in the other period. […]
(7) Tap water to which AOH was added such that the final concentration became 50 μM was provided during pot cultivation.
Brown rice and plant bodies soil-cultivated were dried at 30° C. for 15 days, and brown rice weight (both of weight per plant and weight per 100 brown rice grains), panicle length, culm length, number of panicles, number of tillers, and aerial part weight were measured.

[3] = 0.5 mM AOH during seedling raising
[4] = 0.5 mM AOH, topdressing at panicle formation
[5] = 1.0 mM AOH during seedling raising
[6] = per 10 plants, 0.5 mM AOH as basal fertilizer
[7] = per 10 plants, 0.5 mM AOH during seedling raising
[8] = per 10 plants, 0.5 mM AOH, topdressing at panicle formation
[9] = per 10 plants, 1.0 mM AOH during seedling raising
[10] = 50 μM AOH, topdressing stage for panicle formation
[11] = 50 μM AOH, topdressing stage for ripening
[12] = applying AOH all the time, vs control

With `O=c1[nH]c2nn[nH]c(=O)c2[nH]1` [AOH, 3H-imidazo[4,5-d][1,2,3]triazin-4,6(5H,7H)-dione] the “Increasing rate of sieved brown rice relative to control” value ([1]; 0.5 mM AOH as basal fertilizer) was 10.5%, the Thousand kernel weight ([1]; 0.5 mM AOH as basal fertilizer) was 23.5 ± 0.6 g and the “Increasing rate of sieved brown rice relative to control” value [1, 3] was 8.9%. For the same compound, the Thousand kernel weight [1, 3] was 23.0 ± 0.5 g, the “Increasing rate of sieved brown rice relative to control” value [1, 4] was 7.2% and the Thousand kernel weight [1, 4] was 23.4 ± 0.5 g. The “Increasing rate of sieved brown rice relative to control” value [1, 5] was 10.2%, the Thousand kernel weight [1, 5] was 23.5 ± 0.3 g and the “Hull weight” value ([1]; applying AOH, vs control) was “increased more than the control”. For the same compound, the “Sieved brown rice” value ([1]; applying AOH, vs control) was “increased more than the control”, the “non-sieved brown rice weight” value ([1]; applying AOH, vs control) was “increased more than the control” and the “total brown rice weight” value ([1]; applying AOH, vs control) was “increased more than the control”. For the same compound, the Hull weight [1, 6] was 288 ± 23.9 g, the “Non-sieved brown rice weight” value [1, 6] was 230 ± 19.7 g and the Sieved brown rice [1, 6] was 222 ± 19.8 g. The Total weight [1, 6] was 644 ± 49.5 g, the Hull weight [1, 7] was 283 ± 35.0 g and the “Non-sieved brown rice weight” value [1, 7] was 227 ± 28.9 g. For the same compound, the Sieved brown rice [1, 7] was 218 ± 29.0 g, the Total weight [1, 7] was 630 ± 71.4 g and the Hull weight [1, 8] was 279 ± 24.9 g. For the same compound, the “Non-sieved brown rice weight” value [1, 8] was 224 ± 20.9 g, the Sieved brown rice [1, 8] was 215 ± 20.7 g and the Total weight [1, 8] was 643 ± 54.1 g. For the same compound, the Hull weight [1, 9] was 284 ± 24.4 g, the “Non-sieved brown rice weight” value [1, 9] was 228 ± 20.1 g and the Sieved brown rice [1, 9] was 221 ± 19.5 g. The Total weight [1, 9] was 638 ± 59.6 g, the Aerial part ([2]; 5 μM AOH, all the time) was 151 ± 6.19 g and the “Brown rice weight (g/100 grains)” value ([2]; 5 μM AOH, all the time) was 2.13 ± 0.09 g/100 grains. The “Brown rice weight (g/plant)” value ([2]; 5 μM AOH, all the time) was 59.3 ± 2.27 g/plant, the Culm length ([2]; 5 μM AOH, all the time) was 89.7 ± 6.40 cm and the “Increasing rate of aerial part relative to control” value ([2]; 5 μM AOH, all the time) was 30%. The “Increasing rate of brown rice weight per plant relative to control” value ([2]; 5 μM AOH, all the time) was 42%, the “Increasing rate of number of panicles relative to control” value ([2]; 5 μM AOH, all the time) was 24% and the Number of tillers ([2]; 5 μM AOH, all the time) was 37.9 ± 3.71. It also gave a Panicle length ([2]; 5 μM AOH, all the time) of 24.5 ± 2.24 cm, a number of panicles ([2]; 5 μM AOH, all the time) of 32.8 ± 2.48 and an Aerial part ([2]; 50 μM AOH, all the time) of 147 ± 9.63 g. For the same compound, the “Brown rice weight (g/100 grains)” value ([2]; 50 μM AOH, all the time) was 2.15 ± 0.16 g/100 grains, the “Brown rice weight (g/plant)” value ([2]; 50 μM AOH, all the time) was 58.2 ± 3.76 g/plant and the Culm length ([2]; 50 μM AOH, all the time) was 92.3 ± 5.64 cm. For the same compound, the “Increasing rate of aerial part relative to control” value ([2]; 50 μM AOH, all the time) was 27%, the “Increasing rate of brown rice weight per plant relative to control” value ([2]; 50 μM AOH, all the time) was 40% and the “Increasing rate of number of panicles relative to control” value ([2]; 50 μM AOH, all the time) was 23%. It also gave a Number of tillers ([2]; 50 μM AOH, all the time) of 35.7 ± 4.15, a Panicle length ([2]; 50 μM AOH, all the time) of 24.4 ± 1.96 cm and a number of panicles ([2]; 50 μM AOH, all the time) of 32.7 ± 4.03. The Aerial part ([2]; 50 μM AOH, planting stage) was 125 ± 21.2 g, the “Brown rice weight (g/100 grains)” value ([2]; 50 μM AOH, planting stage) was 2.11 ± 0.07 g/100 grains and the “Brown rice weight (g/plant)” value ([2]; 50 μM AOH, planting stage) was 46.6 ± 9.43 g/plant. For the same compound, the Culm length ([2]; 50 μM AOH, planting stage) was 97.1 ± 12.1 cm, the “Increasing rate of brown rice weight per plant relative to control” value ([2]; 50 μM AOH, planting stage) was 12% and the Number of tillers ([2]; 50 μM AOH, planting stage) was 34.6 ± 2.70. The Panicle length ([2]; 50 μM AOH, planting stage) was 23.5 ± 1.61 cm, the number of panicles ([2]; 50 μM AOH, planting stage) was 27.8 ± 4.26 and the Aerial part ([2]; 50 μM AOH, tillering stage) was 112 ± 30.0 g. For the same compound, the “Brown rice weight (g/100 grains)” value ([2]; 50 μM AOH, tillering stage) was 2.12 ± 0.12 g/100 grains, the “Brown rice weight (g/plant)” value ([2]; 50 μM AOH, tillering stage) was 42.3 ± 12.2 g/plant and the Culm length ([2]; 50 μM AOH, tillering stage) was 94.5 ± 4.63 cm. The Number of tillers ([2]; 50 μM AOH, tillering stage) was 30.9 ± 3.67, the Panicle length ([2]; 50 μM AOH, tillering stage) was 26.2 ± 1.03 cm and the number of panicles ([2]; 50 μM AOH, tillering stage) was 23.0 ± 5.44. For the same compound, the Aerial part [2, 10] was 134 ± 16.5 g, the “Brown rice weight (g/100 grains)” value [2, 10] was 2.12 ± 0.07 g/100 grains and the “Brown rice weight (g/plant)” value [2, 10] was 53.7 ± 3.59 g/plant. For the same compound, the Culm length [2, 10] was 90.2 ± 6.15 cm, the “Increasing rate of brown rice weight per plant relative to control” value [2, 10] was 29% and the Number of tillers [2, 10] was 31.6 ± 3.60. The Panicle length [2, 10] was 24.5 ± 1.61 cm, the number of panicles [2, 10] was 30.5 ± 4.50 and the Aerial part [2, 11] was 131 ± 13.3 g. The “Brown rice weight (g/100 grains)” value [2, 11] was 2.18 ± 0.08 g/100 grains, the “Brown rice weight (g/plant)” value [2, 11] was 53.2 ± 2.61 g/plant and the Culm length [2, 11] was 92.8 ± 3.98 cm. The “Increasing rate of brown rice weight per plant relative to control” value [2, 11] was 28%, the Number of tillers [2, 11] was 31.4 ± 3.91 and the Panicle length [2, 11] was 24.0 ± 2.07 cm. The number of panicles [2, 11] was 28.8 ± 4.67, the “aerial part weight” value [2, 12] was “increased more than the control” and the “number of panicles” value [2, 12] was “increased more than the control”. The “brown rice weight per plant” value ([2]; applying AOH in the topdressing stage for panicle formation or later, vs control) was “increased more than the control”.
